Legend:
[1] = Tmax in CD1 mouse brain at 3 mg/kg, sc by UPLC-MS analysis; assay type: ADME, organism-based
[2] = AUClast in CD1 mouse plasma at 3 mg/kg, sc by UPLC-MS analysis; assay type: ADME, organism-based; design: dose 3 mg/kg, route subcutaneous, time 0 - last
[3] = Ratio of fAUC in CD1 mouse brain to fAUC in CD1 mouse plasma at 3 mg/kg, sc; assay type: ADME, organism-based; settings: read-out: K(p,uu,brain)
[4] = Half life in CD1 mouse brain at 3 mg/kg, sc by UPLC-MS analysis; assay type: ADME, organism-based
D(4) dopamine receptor = molecular target: T1, D(4) dopamine receptor (Homo sapiens, UniProt P21917); assay: Agonist activity at human SP/Myc epitope-tagged dopamine D4 receptor expressed in HEK293T cells assessed as RLuc8-fused Galphai1 activation after 2 mins by BRET assay; assay type: cell-based, HEK-293T
T1 sequence (P21917 whole entry): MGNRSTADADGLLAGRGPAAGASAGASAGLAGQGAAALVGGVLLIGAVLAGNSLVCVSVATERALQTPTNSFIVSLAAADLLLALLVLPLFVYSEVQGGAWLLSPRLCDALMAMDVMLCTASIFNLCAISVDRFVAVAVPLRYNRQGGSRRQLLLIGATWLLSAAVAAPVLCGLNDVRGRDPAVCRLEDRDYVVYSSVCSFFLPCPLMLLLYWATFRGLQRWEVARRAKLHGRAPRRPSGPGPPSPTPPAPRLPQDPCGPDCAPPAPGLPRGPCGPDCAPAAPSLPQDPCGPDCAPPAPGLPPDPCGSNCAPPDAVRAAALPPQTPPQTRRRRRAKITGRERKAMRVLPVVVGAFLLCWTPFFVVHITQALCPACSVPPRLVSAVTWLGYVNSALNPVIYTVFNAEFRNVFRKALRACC

[5] = Cmax in CD1 mouse brain at 3 mg/kg, sc after 0.25 hrs by UPLC-MS analysis; assay type: ADME, organism-based; design: dose 3 mg/kg, route subcutaneous
[6] = AUClast in CD1 mouse brain at 3 mg/kg, sc by UPLC-MS analysis; assay type: ADME, organism-based; design: dose 3 mg/kg, time 0 - last, route subcutaneous
[7] = Cmax in CD1 mouse plasma at 3 mg/kg, sc after 0.25 hrs by UPLC-MS analysis; assay type: ADME, organism-based; design: dose 3 mg/kg, route subcutaneous
Plasma = assay: fAUClast in CD1 mouse plasma at 3 mg/kg, sc by UPLC-MS analysis; assay type: ADME, organism-based; settings: in vivo
[8] = Ratio of AUC in CD1 mouse brain to AUC in CD1 mouse plasma at 3 mg/kg, sc; assay type: ADME, organism-based; settings: read-out: Ratio AUC
[9] = Half life in CD1 mouse plasma at 3 mg/kg, sc by UPLC-MS analysis; assay type: ADME, organism-based
Brain = assay: fAUClast in CD1 mouse brain at 3 mg/kg, sc by UPLC-MS analysis; assay type: ADME, organism-based; settings: in vivo
[10] = molecular target: T2, Muscarinic acetylcholine receptor M4 (Homo sapiens) (UniProt P08173); assay: (§1) Antagonist activity at human SP/Myc epitope-tagged muscarinic M4 receptor expressed in HEK293T cells assessed as inhibition of carbachol-induced RLuc8-fused Galphaq activation preincubated for 15 mins followed by carbachol induction measured after 2 mins by BRET assay; assay type: cell-based; settings: HEK-293T
T2 sequence (whole entry): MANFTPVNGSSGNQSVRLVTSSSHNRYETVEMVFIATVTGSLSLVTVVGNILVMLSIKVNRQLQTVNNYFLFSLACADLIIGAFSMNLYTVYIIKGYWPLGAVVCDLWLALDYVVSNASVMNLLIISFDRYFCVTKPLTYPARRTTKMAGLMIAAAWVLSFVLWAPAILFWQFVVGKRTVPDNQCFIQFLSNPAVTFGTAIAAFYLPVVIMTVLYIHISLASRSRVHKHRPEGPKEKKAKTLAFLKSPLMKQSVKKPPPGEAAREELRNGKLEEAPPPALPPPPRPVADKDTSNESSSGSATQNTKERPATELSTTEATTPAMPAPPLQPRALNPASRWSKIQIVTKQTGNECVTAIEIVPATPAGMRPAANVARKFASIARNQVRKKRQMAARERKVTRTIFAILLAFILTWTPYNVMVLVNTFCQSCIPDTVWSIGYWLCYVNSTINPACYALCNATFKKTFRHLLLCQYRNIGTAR

[11] = molecular target: T3, Muscarinic acetylcholine receptor M4 (Homo sapiens, UniProt P08173); assay: as §1; assay type: cell-based, HEK-293T
T3 sequence (P08173 whole entry): T2 sequence (whole entry)

[12] = molecular target: T4, Muscarinic acetylcholine receptor M1 (Homo sapiens, UniProt P11229); assay: (§2) Antagonist activity at human SP/Myc epitope-tagged muscarinic M1 receptor expressed in HEK293T cells assessed as inhibition of carbachol-induced RLuc8-fused Galphaq activation preincubated for 15 mins followed by carbachol induction measured after 2 mins by BRET assay; assay type: cell-based, HEK-293T
T4 sequence (P11229 whole entry): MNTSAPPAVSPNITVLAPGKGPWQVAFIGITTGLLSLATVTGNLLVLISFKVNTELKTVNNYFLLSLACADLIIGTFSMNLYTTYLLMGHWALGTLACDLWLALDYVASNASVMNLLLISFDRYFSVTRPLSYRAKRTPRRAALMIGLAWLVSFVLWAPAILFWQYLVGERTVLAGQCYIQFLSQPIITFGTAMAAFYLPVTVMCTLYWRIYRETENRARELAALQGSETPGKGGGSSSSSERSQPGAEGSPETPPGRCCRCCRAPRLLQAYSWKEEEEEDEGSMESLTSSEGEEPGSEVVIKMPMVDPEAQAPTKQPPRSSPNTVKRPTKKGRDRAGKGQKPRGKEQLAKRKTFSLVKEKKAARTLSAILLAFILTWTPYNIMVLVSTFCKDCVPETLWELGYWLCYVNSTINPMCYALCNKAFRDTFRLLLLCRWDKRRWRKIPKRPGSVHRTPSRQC

[13] = molecular target: T5, Muscarinic acetylcholine receptor M1 (Homo sapiens) (UniProt P11229); assay: as §2; assay type: cell-based; settings: HEK-293T
T5 sequence (whole entry): T4 sequence (P11229 whole entry)

SMILES	Tmax [1] [min]	AUC(0-t) [2] [ng·h/mL]	Kp uu [3]	half-life [4] [min]	EC50 (D(4) dopamine receptor) [µM]	Cmax [5] [ng/g]	AUC(0-t) [6] [ng·h/mL]	Cmax [7] [ng/mL]	fAUClast (Plasma) [ng·h/mL]	Kp [8]	half-life [9] [min]	fAUClast (Brain) [ng·h/mL]	Imax [10] [%]	IC50 [11] [µM]	IC50 [12] [µM]	Imax [13] [%]
O=C1CCc2ccccc2N1CCCN1CCN(c2ccccc2)CC1	15	518	4.05	55.8	0.000158	2050	2380	481	50.5	4.35	46.2	204				
O=C1CCc2ccccc2N1CCCN1CCC(Cc2ccccc2)CC1													66	8.51	2.63	44
